In paper PMC7304964 (Science Advances, 2020):

Biological target: T1, human NPC1L1 (Homo sapiens, UniProt Q9UHC9)
T1 sequence (Q9UHC9 22-1359): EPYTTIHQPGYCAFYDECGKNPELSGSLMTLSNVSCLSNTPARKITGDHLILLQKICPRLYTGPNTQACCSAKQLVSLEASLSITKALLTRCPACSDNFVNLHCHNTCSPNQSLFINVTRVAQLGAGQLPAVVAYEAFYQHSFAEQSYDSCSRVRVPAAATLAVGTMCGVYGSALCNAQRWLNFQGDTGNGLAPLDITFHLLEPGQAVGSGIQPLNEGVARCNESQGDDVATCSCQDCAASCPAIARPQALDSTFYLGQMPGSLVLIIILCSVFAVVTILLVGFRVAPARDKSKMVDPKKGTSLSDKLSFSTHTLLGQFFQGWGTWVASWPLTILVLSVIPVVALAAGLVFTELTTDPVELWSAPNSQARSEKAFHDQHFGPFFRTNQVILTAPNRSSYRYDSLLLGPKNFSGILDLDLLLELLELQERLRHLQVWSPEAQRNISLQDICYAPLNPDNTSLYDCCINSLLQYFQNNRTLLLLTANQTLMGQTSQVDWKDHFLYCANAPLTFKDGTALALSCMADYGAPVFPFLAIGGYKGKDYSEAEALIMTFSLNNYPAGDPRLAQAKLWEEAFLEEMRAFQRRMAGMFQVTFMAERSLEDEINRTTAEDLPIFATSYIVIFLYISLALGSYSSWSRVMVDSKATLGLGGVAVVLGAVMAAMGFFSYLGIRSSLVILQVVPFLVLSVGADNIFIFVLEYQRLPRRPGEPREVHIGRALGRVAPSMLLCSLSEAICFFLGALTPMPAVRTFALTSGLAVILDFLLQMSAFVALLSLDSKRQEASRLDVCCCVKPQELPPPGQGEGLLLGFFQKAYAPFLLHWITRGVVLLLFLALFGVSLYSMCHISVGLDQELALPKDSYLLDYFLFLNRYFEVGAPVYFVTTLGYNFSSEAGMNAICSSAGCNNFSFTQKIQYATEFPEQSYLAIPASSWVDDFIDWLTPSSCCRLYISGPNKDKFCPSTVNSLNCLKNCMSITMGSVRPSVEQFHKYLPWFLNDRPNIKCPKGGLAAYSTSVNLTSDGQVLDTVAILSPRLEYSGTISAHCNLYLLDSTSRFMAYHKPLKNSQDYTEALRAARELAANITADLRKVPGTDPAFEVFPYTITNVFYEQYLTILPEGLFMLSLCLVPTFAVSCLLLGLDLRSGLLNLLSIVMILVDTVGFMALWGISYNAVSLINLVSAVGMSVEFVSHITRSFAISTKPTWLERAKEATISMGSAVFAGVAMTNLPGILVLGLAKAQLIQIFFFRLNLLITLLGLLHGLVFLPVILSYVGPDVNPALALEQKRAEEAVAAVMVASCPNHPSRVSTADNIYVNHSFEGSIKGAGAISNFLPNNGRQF
Assay: 3H-cholesterol uptake inhibition in hNPC1L1/MDCKII cells
Assay type: cell-based

| IC50 | SMILES |
| --- | --- |
| 3860 nM | O=C1[C@H](CC[C@H](O)c2ccc(F)cc2)[C@@H](c2ccc(O)cc2)N1c1ccc(F)cc1 [Eze, ezetimibe] |
| 682 nM | O=C(O)[C@H]1O[C@@H](Oc2ccc([C@@H]3[C@@H](CC[C@H](O)c4ccc(F)cc4)C(=O)N3c3ccc(F)cc3)cc2)[C@H](O)[C@@H](O)[C@@H]1O [Eze-Glu, ezetimibe-glucuronide] |
